Test results as given in patent US20220168431A1, “METHODS OF TREATING CANCER USING TRIMETAZIDINE-BASED COMPOUNDS” (IMBRIA PHARMACEUTICALS, INC., priority 2019, published 2022).

How the values were obtained:
Vasopressin V1A = Vasopressin V1A (Homo sapiens, UniProt P37288); assay type: binding; settings: 10 μM CV-8814
Histamine H2 = Histamine H2 (Homo sapiens, UniProt P25021); assay type: binding; settings: 10 μM CV-8814
Tachykinin NK1 = Tachykinin NK1 (Homo sapiens, UniProt P25103); assay type: binding; settings: 10 μM CV-8814
Glucocorticoid = Glucocorticoid (Homo sapiens, UniProt P04150); assay type: binding; settings: 10 μM CV-8814
Adrenergic α1A = Adrenergic α1A (Rattus norvegicus, UniProt P43140); assay type: binding; settings: 10 μM CV-8814
GABAB1A = GABAB1A (Homo sapiens, UniProt Q9UBS5); assay type: binding; settings: 10 μM CV-8814
[1] = target: Nicotinic Acetylcholine α1, Bungarotoxin (Homo sapiens, UniProt P02708+P07510+Q07001); assay: biochemical; assay type: binding
Cyclooxygenase COX-2 = Cyclooxygenase COX-2 (Homo sapiens, UniProt P35354); assay type: biochemical; settings: 10 μM CV-8814
[2] = target: Cholecystokinin CCK2 (CCKB) (Homo sapiens, UniProt P32239); assay type: binding; settings: 10 μM CV-8814
Dopamine D2S = Dopamine D2S (Homo sapiens, UniProt P14416); assay type: binding; settings: 10 μM CV-8814
[3] = target: Serotonin (5-Hydroxytryptamine) 5-HT2A (Homo sapiens, UniProt P28223); assay type: binding; settings: 10 μM CV-8814
Monoamine Oxidase MAO-A = Monoamine Oxidase MAO-A (Homo sapiens, UniProt P21397); assay type: biochemical; settings: 10 μM CV-8814
Adenosine A1 = Adenosine A1 (Homo sapiens, UniProt P30542); assay type: binding; settings: 10 μM CV-8814
Neuropeptide Y Y1 = Neuropeptide Y Y1 (Homo sapiens, UniProt P25929); assay type: binding; settings: 10 μM CV-8814
[4] = target: Transporter, Dopamine (DAT) (Homo sapiens, UniProt Q01959); assay type: binding; settings: 10 μM CV-8814
Adrenergic α2B = Adrenergic α2B (Homo sapiens, UniProt P18089); assay type: binding; settings: 10 μM CV-8814
Muscarinic M4 = Muscarinic M4 (Homo sapiens, UniProt P08173); assay type: binding; settings: 10 μM CV-8814
Sequence of Muscarinic M4 (P08173 whole entry): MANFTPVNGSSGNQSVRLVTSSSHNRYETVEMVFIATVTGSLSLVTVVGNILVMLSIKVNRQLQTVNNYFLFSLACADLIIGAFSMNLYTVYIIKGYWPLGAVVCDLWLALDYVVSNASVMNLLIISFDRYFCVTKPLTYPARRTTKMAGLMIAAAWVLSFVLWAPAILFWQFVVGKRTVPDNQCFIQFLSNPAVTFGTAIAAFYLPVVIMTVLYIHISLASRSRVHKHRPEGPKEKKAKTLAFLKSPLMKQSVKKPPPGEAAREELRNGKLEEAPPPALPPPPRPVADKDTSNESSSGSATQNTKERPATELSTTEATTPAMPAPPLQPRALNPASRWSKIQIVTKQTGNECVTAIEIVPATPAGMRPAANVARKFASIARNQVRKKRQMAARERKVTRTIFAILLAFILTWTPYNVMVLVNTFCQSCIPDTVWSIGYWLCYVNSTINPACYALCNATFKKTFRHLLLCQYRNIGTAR

[5] = target: Peptidase, Angiotensin Converting Enzyme (Oryctolagus cuniculus, UniProt P12822); assay type: biochemical, rabbit; settings: 10 μM CV-8814
Sequence of Peptidase, Angiotensin Converting Enzyme (P12822 34-1310): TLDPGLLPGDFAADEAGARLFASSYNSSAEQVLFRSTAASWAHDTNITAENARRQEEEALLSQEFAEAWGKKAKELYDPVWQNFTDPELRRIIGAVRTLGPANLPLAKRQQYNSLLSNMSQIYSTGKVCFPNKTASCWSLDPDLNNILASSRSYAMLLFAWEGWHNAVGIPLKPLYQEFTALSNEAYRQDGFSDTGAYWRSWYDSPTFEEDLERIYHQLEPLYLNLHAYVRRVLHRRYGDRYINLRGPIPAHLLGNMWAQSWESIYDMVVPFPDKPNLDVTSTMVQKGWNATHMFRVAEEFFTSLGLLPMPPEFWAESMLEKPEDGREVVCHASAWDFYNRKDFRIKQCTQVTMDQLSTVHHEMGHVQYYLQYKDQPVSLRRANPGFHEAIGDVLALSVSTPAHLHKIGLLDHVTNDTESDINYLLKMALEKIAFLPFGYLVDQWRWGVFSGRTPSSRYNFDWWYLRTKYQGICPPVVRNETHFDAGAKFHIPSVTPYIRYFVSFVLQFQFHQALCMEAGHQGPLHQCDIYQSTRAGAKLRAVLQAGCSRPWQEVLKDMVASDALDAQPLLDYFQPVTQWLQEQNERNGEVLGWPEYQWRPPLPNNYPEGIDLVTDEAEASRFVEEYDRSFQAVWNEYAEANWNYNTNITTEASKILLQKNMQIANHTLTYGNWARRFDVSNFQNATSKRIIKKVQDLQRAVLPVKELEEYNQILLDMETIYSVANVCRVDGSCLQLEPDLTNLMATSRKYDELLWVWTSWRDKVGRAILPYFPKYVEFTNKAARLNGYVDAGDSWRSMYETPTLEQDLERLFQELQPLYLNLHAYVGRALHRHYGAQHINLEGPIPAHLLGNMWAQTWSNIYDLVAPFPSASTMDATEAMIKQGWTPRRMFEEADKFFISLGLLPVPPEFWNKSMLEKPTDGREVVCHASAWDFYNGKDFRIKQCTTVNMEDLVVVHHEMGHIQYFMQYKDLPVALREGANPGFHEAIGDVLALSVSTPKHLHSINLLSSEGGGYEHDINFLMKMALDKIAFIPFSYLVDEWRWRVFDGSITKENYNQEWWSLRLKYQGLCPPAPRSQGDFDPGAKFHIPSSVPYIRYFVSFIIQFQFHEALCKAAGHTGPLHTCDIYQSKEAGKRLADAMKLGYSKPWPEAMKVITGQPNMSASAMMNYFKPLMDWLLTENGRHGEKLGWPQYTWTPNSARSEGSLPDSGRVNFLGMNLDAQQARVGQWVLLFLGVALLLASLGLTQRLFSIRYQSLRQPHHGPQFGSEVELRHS

Bradykinin B2 = Bradykinin B2 (Homo sapiens, UniProt P30411); assay type: binding; settings: 10 μM CV-8814
Histamine H1 = Histamine H1 (Homo sapiens, UniProt P35367); assay type: binding; settings: 10 μM CV-8814
Opiate κ (OP2, KOP) = Opiate κ (OP2, KOP) (Homo sapiens, UniProt P41145); assay type: binding; settings: 10 μM CV-8814
Sequence of Opiate κ (OP2, KOP) (P41145 whole entry): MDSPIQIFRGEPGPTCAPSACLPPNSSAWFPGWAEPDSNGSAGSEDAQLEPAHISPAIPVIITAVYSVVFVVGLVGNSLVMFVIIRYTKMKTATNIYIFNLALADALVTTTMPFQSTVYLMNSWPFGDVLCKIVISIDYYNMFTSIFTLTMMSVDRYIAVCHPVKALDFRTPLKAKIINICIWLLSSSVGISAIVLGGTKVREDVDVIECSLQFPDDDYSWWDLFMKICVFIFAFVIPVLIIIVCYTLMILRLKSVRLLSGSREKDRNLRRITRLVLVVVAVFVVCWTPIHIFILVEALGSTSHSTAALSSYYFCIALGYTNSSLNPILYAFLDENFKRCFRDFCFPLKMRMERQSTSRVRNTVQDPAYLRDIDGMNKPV

Muscarinic M1 = Muscarinic M1 (Homo sapiens, UniProt P11229); assay type: binding; settings: 10 μM CV-8814
Estrogen ERα = Estrogen ERα (Homo sapiens, UniProt P03372); assay type: binding; settings: 10 μM CV-8814
Sequence of Estrogen ERα (P03372 whole entry): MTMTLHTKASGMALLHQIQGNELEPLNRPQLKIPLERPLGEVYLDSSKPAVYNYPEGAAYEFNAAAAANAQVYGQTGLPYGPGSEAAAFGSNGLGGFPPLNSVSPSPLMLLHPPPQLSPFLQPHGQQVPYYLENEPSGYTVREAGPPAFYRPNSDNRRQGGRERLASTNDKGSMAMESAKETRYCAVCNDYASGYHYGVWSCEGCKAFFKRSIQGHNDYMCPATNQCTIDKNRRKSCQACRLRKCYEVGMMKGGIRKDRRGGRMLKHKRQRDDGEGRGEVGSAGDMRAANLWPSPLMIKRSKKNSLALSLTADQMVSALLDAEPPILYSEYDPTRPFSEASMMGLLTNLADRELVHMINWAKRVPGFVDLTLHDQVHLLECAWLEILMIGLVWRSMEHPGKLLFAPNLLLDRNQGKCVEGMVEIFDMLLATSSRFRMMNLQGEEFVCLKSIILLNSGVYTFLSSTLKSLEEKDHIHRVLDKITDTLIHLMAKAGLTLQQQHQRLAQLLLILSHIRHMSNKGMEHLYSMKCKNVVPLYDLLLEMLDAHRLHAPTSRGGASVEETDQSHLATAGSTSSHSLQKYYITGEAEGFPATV

Opiate δ1 (OP1, DOP) = Opiate δ1 (OP1, DOP) (Homo sapiens, UniProt P41143); assay type: binding; settings: 10 μM CV-8814
Calcium Channel N-Type = Calcium Channel N-Type (Rattus norvegicus, UniProt Q02294); assay type: binding; settings: 10 μM CV-8814
Sequence of Calcium Channel N-Type (Q02294 whole entry): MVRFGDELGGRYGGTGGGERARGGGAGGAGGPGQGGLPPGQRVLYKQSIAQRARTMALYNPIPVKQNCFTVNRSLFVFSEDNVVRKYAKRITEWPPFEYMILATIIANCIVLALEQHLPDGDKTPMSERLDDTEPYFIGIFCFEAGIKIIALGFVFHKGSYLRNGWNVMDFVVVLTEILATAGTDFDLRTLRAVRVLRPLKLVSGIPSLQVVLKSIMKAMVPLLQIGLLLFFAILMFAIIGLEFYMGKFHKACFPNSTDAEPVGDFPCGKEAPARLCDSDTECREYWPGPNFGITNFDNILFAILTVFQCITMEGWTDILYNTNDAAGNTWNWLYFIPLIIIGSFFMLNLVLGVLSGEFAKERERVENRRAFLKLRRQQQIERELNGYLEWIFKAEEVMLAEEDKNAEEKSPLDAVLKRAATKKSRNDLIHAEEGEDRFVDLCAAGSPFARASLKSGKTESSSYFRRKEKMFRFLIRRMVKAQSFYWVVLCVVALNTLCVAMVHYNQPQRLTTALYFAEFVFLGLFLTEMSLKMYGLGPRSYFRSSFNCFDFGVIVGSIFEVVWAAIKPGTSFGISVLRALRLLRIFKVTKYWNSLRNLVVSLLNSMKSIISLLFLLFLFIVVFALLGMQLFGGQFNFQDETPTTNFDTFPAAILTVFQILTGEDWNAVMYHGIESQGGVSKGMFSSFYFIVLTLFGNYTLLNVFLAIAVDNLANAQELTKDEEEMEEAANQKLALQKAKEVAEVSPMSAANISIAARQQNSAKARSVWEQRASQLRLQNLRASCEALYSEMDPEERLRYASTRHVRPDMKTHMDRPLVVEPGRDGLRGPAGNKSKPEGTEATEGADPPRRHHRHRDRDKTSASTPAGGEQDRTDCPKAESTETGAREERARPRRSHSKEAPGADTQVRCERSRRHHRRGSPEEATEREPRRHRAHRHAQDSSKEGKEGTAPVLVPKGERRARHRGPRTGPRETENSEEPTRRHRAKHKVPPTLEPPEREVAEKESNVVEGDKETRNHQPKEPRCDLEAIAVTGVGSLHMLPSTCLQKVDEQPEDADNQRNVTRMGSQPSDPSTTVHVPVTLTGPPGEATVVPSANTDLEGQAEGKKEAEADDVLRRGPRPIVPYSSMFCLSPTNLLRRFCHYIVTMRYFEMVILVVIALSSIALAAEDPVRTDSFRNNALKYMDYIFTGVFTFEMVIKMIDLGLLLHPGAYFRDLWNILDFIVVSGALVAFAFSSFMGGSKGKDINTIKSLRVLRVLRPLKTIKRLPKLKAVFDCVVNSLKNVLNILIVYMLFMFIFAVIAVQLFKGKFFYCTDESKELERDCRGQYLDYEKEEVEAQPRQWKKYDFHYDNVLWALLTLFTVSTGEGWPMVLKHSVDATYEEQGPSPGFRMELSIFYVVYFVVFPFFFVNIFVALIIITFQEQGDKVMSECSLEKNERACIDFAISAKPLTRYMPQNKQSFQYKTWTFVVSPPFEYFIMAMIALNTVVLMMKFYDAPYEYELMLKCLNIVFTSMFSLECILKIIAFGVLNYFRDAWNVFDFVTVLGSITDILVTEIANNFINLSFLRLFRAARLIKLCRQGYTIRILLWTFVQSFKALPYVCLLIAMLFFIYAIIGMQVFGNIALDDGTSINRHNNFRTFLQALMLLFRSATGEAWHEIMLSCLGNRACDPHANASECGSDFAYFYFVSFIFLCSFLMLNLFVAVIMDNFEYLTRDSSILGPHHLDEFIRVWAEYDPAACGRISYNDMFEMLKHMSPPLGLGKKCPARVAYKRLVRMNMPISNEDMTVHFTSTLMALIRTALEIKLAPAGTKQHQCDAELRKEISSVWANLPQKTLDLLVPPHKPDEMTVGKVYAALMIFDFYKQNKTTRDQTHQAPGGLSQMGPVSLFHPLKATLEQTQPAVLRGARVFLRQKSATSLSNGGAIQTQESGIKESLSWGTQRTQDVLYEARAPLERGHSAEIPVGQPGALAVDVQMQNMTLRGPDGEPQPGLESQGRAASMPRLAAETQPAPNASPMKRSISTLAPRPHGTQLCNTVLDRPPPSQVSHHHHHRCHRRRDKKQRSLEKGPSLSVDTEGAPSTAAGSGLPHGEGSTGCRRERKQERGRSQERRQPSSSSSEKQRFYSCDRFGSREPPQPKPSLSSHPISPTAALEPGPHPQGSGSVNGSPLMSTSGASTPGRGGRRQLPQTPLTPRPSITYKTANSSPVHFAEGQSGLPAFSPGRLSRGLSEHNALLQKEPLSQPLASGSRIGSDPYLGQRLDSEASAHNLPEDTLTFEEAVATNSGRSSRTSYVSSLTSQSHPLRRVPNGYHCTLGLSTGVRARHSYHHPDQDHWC

Measured: inhibition at 10 µM

COc1ccc(CN2CCN(CCO)CC2)c(OC)c1OC [CV-8814, 2-(4-(2,3,4-trimethoxybenzyl)piperazin-1-yl)ethan-1-01]
< 50%: all assays above
